# How the values were obtained:
# [1] = system: patients with severe CRF (breast cancer or prostate cancer); assay: randomized, double-blind, placebo-controlled study of taltirelin in idiopathic cancer-related fatigue; type: in vivo, human; details: 10 mg vs placebo; after 6 weeks of treatment
# Protocol: Patient Selection. Patients with a diagnosis of cancer, in this study, breast cancer, or prostate cancer, are screened for CRF using a brief fatigue inventory (BFI) in an oncology clinic setting. The BFI is a simple 9-item self-administered scale and requires about 5-10 minutes to complete. Patients experiencing a severe level of fatigue (BFI≧7) are identified based on this screening. […]
# Both groups undergo a comprehensive assessment to investigate different aspects of fatigue. […] Patients are also evaluated for two major psychiatric disorders frequently co-occurring with CRF, depressive disorders and anxiety disorders. […]
# In the intervention phase of the study, patients receive study medication or placebo based on their group assignments. […] Patients are assessed for their overall status using the clinical global impressions severity of illness scale (CGI-S) at randomization, at week 4 and at the end of the intervention phase. They are also assessed for any global improvement using clinical global impressions improvement scale (CGI-I) at week 4 and at the end of intervention phase. […]
# [2] = system: patients with severe CRF (breast cancer or prostate cancer); assay: double-blind, placebo-controlled crossover study of intravenous TRH infusions in idiopathic cancer-related fatigue; type: in vivo, human
# Protocol: Patient Selection. Patients with a diagnosis of cancer, in this study, breast cancer; or prostate cancer, are screened for CRF using a brief fatigue inventory (BFI) in an oncology clinic setting. The BFI is a simple 9-item self-administered scale and requires about 5-10 minutes to complete. Patients experiencing a severe level of fatigue (BFI≧7) are identified based on this screening. These patients then undergo additional screening with a comprehensive interview and laboratory assessments (hemoglobin, hematocrit, thyroid stimulating hormone concentration, and electrolytes) to identify and exclude patients with medically reversible or other treatable causes of fatigue (viz. anemia, hypothyroidism, electrolyte abnormalities, significant pain dominating the CRF presentation). […]
# The patients selected undergo a comprehensive assessment to investigate different aspects of fatigue. […] Patients are evaluated for two major psychiatric disorders frequently co-occurring with CRF, depressive disorders and anxiety disorders. […]
# The study utilizes a double-blind, placebo-controlled crossover design. […], patients are evaluated in the General Clinical Research Unit (GCRC) of the John Dempsey Hospital and receive intravenous infusions of TRH (0.5 mg for the first active drug trial, 1.5 mg for the second active drug trial) or saline in random order following an ABBA crossover design. […]
# [3] = system: patients with spinocerebellar degeneration (SCD); details: cited from earlier work
compound,measurement,setting,value
taltirelin,"improving cancer related fatigue, change from baseline in mean fatigue scores assessed using BFI and MFI",[1],superior to placebo
same,"improving quality of life, change from baseline in mean quality of life scores assessed using SF-36",[1],superior to placebo
"NC(=O)[C@@H]1CCCN1C(=O)[C@H](Cc1cnc[nH]1)NC(=O)[C@@H]1CCC(=O)N1 [TRH, L-pyroglutamyl-L-histidyl-L-prolineamide]","improving cancer related fatigue, change from baseline in mean fatigue scores assessed using the BFI and MFI","[2]; TRH 0.5 mg or 1.5 mg infusion vs placebo (saline), each comparison point during 4 week treatment intervention phase",superior to placebo
same,"improving quality of life, change from baseline in mean quality of life scores assessed using SF-36","[2]; TRH 0.5 mg or 1.5 mg vs placebo, of treatment",superior to placebo
CN1C(=O)C[C@@H](C(=O)N[C@@H](Cc2c[nH]cn2)C(=O)N2CCC[C@H]2C(N)=O)NC1=O [taltirelin],safety record and side effect profile,[3]; Phase III clinical trials and post-marketing surveillance in Japan,excellent safety record
same,efficacy in the treatment of spinocerebellar degeneration (SCD),[3]; SCD patients,some efficacy
